Measured values as given in ChEMBL document CHEMBL1138686, “Discovery of potent antagonists of the antiapoptotic protein XIAP for the treatment of cancer” (J Med Chem, 2004).
Values joined by “and” are separate entries in the source; they are usually repeats but may differ in a detail not shown here. Equal entries are not always repeated. Numbered stars: 1 amine (or outer) side, 2 acyl side, 3 side chain; on linkers, the order of the positions; unused ones are H or OH. Square brackets hold non-standard residues; d marks the D form. Peptide text beside a SMILES is read from it. ξ: configuration not given here. Phe(4-Cl) = N[C@@H](Cc1ccc(Cl)cc1)C(=O)O; 1Nal = N[C@@H](Cc1cccc2ccccc12)C(=O)O; 2Nal = N[C@@H](Cc1ccc2ccccc2c1)C(=O)O; X1 = O=C([C@@H]1CC(O)CN1[*:1])[*:2]; hPhe = N[C@@H](CCc1ccccc1)C(=O)O; Phg = N[C@H](C(=O)O)c1ccccc1; Tle = CC(C)(C)[C@H](N)C(=O)O; Nle = CCCC[C@H](N)C(=O)O; ξPip = O=C(O)C1CCCCN1; Aib = CC(C)(N)C(=O)O; ξNMeA = CNC(C)C(=O)O; ξAze = O=C(O)C1CCN1; Sar = CNCC(=O)O

What was measured:
[1] = The compound was tested for toxicity against human breast cancer cell line BT-549; type: functional, cell-based; conditions: cancer cell lines
[2] = The compound was tested for toxicity against human renal cancer cell line RXF-393; type: functional, cell-based; conditions: cancer cell lines
[3] = The compound was tested for toxicity against human NSCL cancer cell line NCI-H23; type: functional, cell-based; conditions: cancer cell lines
[4] = The compound was tested for toxicity against human ovarian cancer cell line SK-OV-3; type: functional, cell-based; conditions: cancer cell lines
[5] = The compound was tested for toxicity against human breast cancer cell line MDA-MB-231; type: functional, cell-based; conditions: cancer cell lines
HL-60 = test: cells; conditions: Homo sapiens
Description: The compound was tested for toxicity against human leukemia cancer cell line HL-60

[6] = The compound was tested for toxicity against human NSCL cancer cell line NCI-H522; type: functional, cell-based; conditions: cancer cell lines
SK-MEL-5 = test: cells; conditions: Homo sapiens
Description: The compound was tested for toxicity against human melanoma cancer cell line SK-MEL-5

[7] = biological target: T1, E3 ubiquitin-protein ligase XIAP (Homo sapiens, UniProt P98170); test: Binding affinity to the BIR3 domain of X-linked IAP
[8] = biological target: T1, E3 ubiquitin-protein ligase XIAP; test: Relief of caspase inhibition in reconstituted assay (APAF-1, caspase-9, procaspase-3) with BIR3 domain of XIAP
[9] = biological target: T1, E3 ubiquitin-protein ligase XIAP; test: Relief of caspase inhibition in reconstituted assay (APAF-1, caspase-9, procaspase-3) with XIAP

T1 sequence (P98170 whole entry, the tested form may be a part): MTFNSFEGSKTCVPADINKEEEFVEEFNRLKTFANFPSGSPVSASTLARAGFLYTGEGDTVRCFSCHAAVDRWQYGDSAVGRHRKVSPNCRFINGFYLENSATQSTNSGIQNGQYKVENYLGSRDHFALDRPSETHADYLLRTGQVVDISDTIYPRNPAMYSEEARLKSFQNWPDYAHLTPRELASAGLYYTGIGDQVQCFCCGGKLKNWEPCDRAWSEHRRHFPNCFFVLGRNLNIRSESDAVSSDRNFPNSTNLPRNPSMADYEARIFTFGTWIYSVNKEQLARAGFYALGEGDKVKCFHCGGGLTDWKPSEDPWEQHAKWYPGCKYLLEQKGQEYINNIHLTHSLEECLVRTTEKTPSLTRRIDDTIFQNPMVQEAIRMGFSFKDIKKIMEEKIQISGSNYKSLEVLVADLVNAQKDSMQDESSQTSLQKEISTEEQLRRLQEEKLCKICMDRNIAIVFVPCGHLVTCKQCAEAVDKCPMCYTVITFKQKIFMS

Compound	Kd [7]	other results
CN[C@@H](C)C(=O)N[C@H](C(=O)N1CCC[C@H]1C(=O)N[C@@H]1CCCc2ccccc21)C(C)(C)C	–	EC50 [1]: 10 nM; EC50 [2]: 810 nM; EC50 [3]: 5300 nM; EC50 [4]: 1500 nM; EC50 [5]: 60 nM; EC50 (HL-60): 990 nM; EC50 [6]: 1700 nM; EC50 (SK-MEL-5): 1300 nM
CC(C)[C@@H](NC(=O)[C@H](C)N)C(=O)N1CCC[C@H]1C(=O)N[C@@H](Cc1ccccc1)C(=O)N[C@@H](Cc1ccc(O)cc1)C(=O)O	90 nM and 120 nM	–
CN[C@@H](C)C(=O)N[C@H](C(=O)N1CCC[C@H]1C(=O)N[C@H]1CCCc2ccccc21)C(C)(C)C	–	EC50 [4]: 5600 nM; EC50 [5]: 3000 nM
C[C@@H](C(=O)N[C@H](C(=O)N1CCC[C@H]1C(=O)N[C@@H]1CCCc2ccccc21)C1CCCCC1)N(C)C	–	EC50 [1]: 1000 nM; EC50 [2]: > 50000 nM; EC50 [3]: > 50000 nM; EC50 [4]: > 25000 nM; EC50 [5]: 3400 nM; EC50 (HL-60): 4300 nM; EC50 [6]: > 50000 nM; EC50 (SK-MEL-5): 15000 nM
CN[C@@H](C)C(=O)N[C@H](C(=O)N1CCC[C@H]1C(=O)N[C@@H]1CCCc2ccccc21)C1CCCCC1	–	EC50 [1]: 7 nM; EC50 [2]: 1100 nM; EC50 [3]: 1500 nM; EC50 [4]: 1300 nM; EC50 [5]: 10 nM; EC50 (HL-60): 190 nM; EC50 [6]: 2000 nM; EC50 (SK-MEL-5): 290 nM
CN[C@@H](C)C(=O)N[C@H](C(=O)N1CCC[C@H]1C(=O)NC1c2ccccc2-c2ccccc21)C(C)(C)C	40 nM	–
CN[C@@H](C)C(=O)N[C@H](C(=O)N1CCC[C@H]1C(=O)N[C@@H]1CCc2ccccc21)C(C)(C)C	20 nM	–
CC(C)[C@@H](C(=O)N1CCC[C@H]1C(=O)N[C@@H](Cc1ccccc1)C(=O)N[C@@H](Cc1ccc(O)cc1)C(=O)O)N(C)C	8700 nM	–
CC(C)C[C@@H](NC(=O)[C@H](C)N)C(=O)N1CCC[C@H]1C(=O)N[C@@H](Cc1ccccc1)C(=O)N[C@@H](Cc1ccc(O)cc1)C(=O)O	160 nM	–
CC(C(=O)N[C@H](C(=O)N1C[C@@H](Oc2ccccc2)C[C@H]1C(=O)NC1CCCc2ccccc21)C(C)(C)C)N(C)C (some centres not stated)	> 1000 nM	EC50 [8]: > 100000 nM; EC50 [9]: > 100000 nM
CC(C)[C@H](NC(=O)[C@H](C)N)C(=O)N1CCC[C@H]1C(=O)N[C@@H](Cc1cccc2ccccc12)C(=O)N[C@@H](Cc1ccc(O)cc1)C(=O)O (H-AVP[1Nal]Y-OH)	90 nM	–
CC(C)[C@H](NC(=O)[C@H](C)N)C(=O)N1CCC[C@H]1C(=O)N[C@@H](Cc1ccc2ccccc2c1)C(=O)N[C@@H](Cc1ccc(O)cc1)C(=O)O (H-AVP[2Nal]Y-OH)	190 nM	–
CC(C)[C@H](NC(=O)[C@H](C)N)C(=O)N1CCC[C@H]1C(=O)NC(C)(C)C(=O)N[C@@H](Cc1ccc(O)cc1)C(=O)O (H-AVP[Aib]Y-OH)	6700 nM	–
CCCC[C@H](NC(=O)[C@@H]1CCCN1C(=O)[C@@H](NC(=O)[C@H](C)N)C(C)C)C(=O)N[C@@H](Cc1ccc(O)cc1)C(=O)O (H-AVP[Nle]Y-OH)	900 nM	–
CC(C)[C@H](NC(=O)[C@H](C)N)C(=O)N1CCC[C@H]1C(=O)N[C@@H](Cc1ccc(Cl)cc1)C(=O)N[C@@H](Cc1ccc(O)cc1)C(=O)O (H-AVP[Phe(4-Cl)]Y-OH)	180 nM	–
CC(C)[C@H](NC(=O)[C@H](C)N)C(=O)N1CCC[C@H]1C(=O)N[C@H](C(=O)N[C@@H](Cc1ccc(O)cc1)C(=O)O)c1ccccc1 (H-AVP[Phg]Y-OH)	30 nM	–
CC(C)[C@H](NC(=O)[C@H](C)N)C(=O)N1CCC[C@H]1C(=O)N[C@@H](CCc1ccccc1)C(=O)N[C@@H](Cc1ccc(O)cc1)C(=O)O (H-AVP[hPhe]Y-OH)	180 nM	–
CC(C)[C@H](NC(=O)[C@H](C)N)C(=O)NC(C)(C)C(=O)N[C@@H](Cc1ccccc1)C(=O)N[C@@H](Cc1ccc(O)cc1)C(=O)O (H-AV[Aib]FY-OH)	> 20000 nM	–
CC(C)[C@H](NC(=O)[C@H](C)N)C(=O)N(C)CC(=O)N[C@@H](Cc1ccccc1)C(=O)N[C@@H](Cc1ccc(O)cc1)C(=O)O (H-AV[Sar]FY-OH)	600 nM	–

Compound	Kd [7]	other results
CC(C)[C@H](NC(=O)[C@H](C)N)C(=O)N1CC(O)C[C@H]1C(=O)N[C@@H](Cc1ccccc1)C(=O)N[C@@H](Cc1ccc(O)cc1)C(=O)O (some centres not stated) (H-AV[X1]FY-OH)	800 nM	–
CC(C)[C@H](NC(=O)[C@H](C)N)C(=O)N1CCC1C(=O)N[C@@H](Cc1ccccc1)C(=O)N[C@@H](Cc1ccc(O)cc1)C(=O)O (some centres not stated) (H-AV[ξAze]FY-OH)	120 nM	–
CC(C)[C@H](NC(=O)[C@H](C)N)C(=O)N(C)C(C)C(=O)N[C@@H](Cc1ccccc1)C(=O)N[C@@H](Cc1ccc(O)cc1)C(=O)O (some centres not stated) (H-AV[ξNMeA]FY-OH)	1600 nM	–
CC(C)[C@H](NC(=O)[C@H](C)N)C(=O)N1CCCCC1C(=O)N[C@@H](Cc1ccccc1)C(=O)N[C@@H](Cc1ccc(O)cc1)C(=O)O (some centres not stated) (H-AV[ξPip]FY-OH)	400 nM	–
C[C@H](N)C(=O)NC(C)(C)C(=O)N1CCC[C@H]1C(=O)N[C@@H](Cc1ccccc1)C(=O)N[C@@H](Cc1ccc(O)cc1)C(=O)O (H-A[Aib]PFY-OH)	> 20000 nM	–
C[C@H](N)C(=O)N[C@H](C(=O)N1CCC[C@H]1C(=O)N[C@@H](Cc1ccccc1)C(=O)N[C@@H](Cc1ccc(O)cc1)C(=O)O)C(C)(C)C (H-A[Tle]PFY-OH)	40 nM	–
CC(C(=O)N1CCC[C@H]1C(=O)N[C@@H](Cc1ccccc1)C(=O)N[C@@H](Cc1ccc(O)cc1)C(=O)O)N(C)C(=O)[C@H](C)N (some centres not stated) (H-A[ξNMeA]PFY-OH)	> 20000 nM	–
CC(C)C(NC(=O)[C@H](C)N)C(=O)N1CCC[C@H]1C(=O)N[C@@H](Cc1ccccc1)C(=O)N[C@@H](Cc1ccc(O)cc1)C(=O)O (single isomer, unassigned)	> 20000 nM	–
CNC(C)C(=O)N[C@H](C(=O)N1CCC[C@H]1C(=O)N[C@@H]1CCCc2ccccc21)C(C)(C)C (single isomer, unassigned)	–	EC50 [4]: > 50000 nM; EC50 [5]: 8300 nM
H-AGPFY-OH	2700 nM	–
H-AKPFY-OH	50 nM	–
H-AVGFY-OH	3000 nM	–
H-AVPFG-OH	3400 nM	–
H-AVPIY-OH	360 nM	–
H-AVPLY-OH	280 nM	–
H-AVPYY-OH	300 nM	–
H-GVPFY-OH	9600 nM	–
H-VVPFY-OH	900 nM	–
